Experimental data taken from patent US20220362163A1, “METHODS AND COMPOSITIONS FOR CANCER TREATMENT USING NANOPARTICLES CONJUGATED WITH MULTIPLE LIGANDS FOR BINDING RECEPTORS ON NK CELLS” (The University of North Carolina at Chapel Hill, priority 2019, published 2022).

Test system: A431 tumor
Assay: A431 tumor model in T-cell deficient Nu mice
Details: i.v. at 6, 8, 10 days post-inoculation

SMILES: COc1cccc2c1C(=O)c1c(O)c3c(c(O)c1C2=O)C[C@@](O)(C(=O)CO)C[C@@H]3O[C@H]1C[C@H](N)[C@@H](O)[C@H](C)O1 [free EPI, epirubicin]
- effect on tumor growth: slightly reduced the rate of tumor growth
